Tested on: rats with hybrid hyperlipidemia
Assay: Blood lipids in hybrid hyperlipidemia rat model
Format: in vivo, SD rat
Conditions: 3.3 mg/kg, compared with the modeling control group, at each time point
Method: Grouping: After quarantine, the animals were randomized into a negative control group of 10 animals and modeling groups of the rest. After the modeling groups were given modeling feed for 2 weeks, the animals were anesthetized by isoflurane inhalation without fasting. The blood was collected from orbital venous sinus and was centrifuged at 3000 rpm for 10 min to separate the serum. The total cholesterol (TC), triglyceride (TG), low-density lipoprotein cholesterol (LDL-C) and high-density lipoprotein cholesterol (HDL-C) levels were determined. Animals with lower TG levels were eliminated. […]
2.8.1 High-fat and high-cholesterol modeling feed: A maintenance feed containing 20.0% of sucrose, 5% of lard, 1.0% of cholesterol, 0.1% of sodium cholate, appropriate amounts of casein, calcium bicarbonate, powdered stone and the like. Other than crude fat, in the modeling feed, moisture, crude protein, crude fat, crude fiber, crude ash, calcium, phosphorus and calcium:phosphorus all satisfied the national standard for maintenance feed. The feed was provided by Guangdong Medical Laboratory Animal Center. […]
2.8.6.3 Blood lipids: After 2, 4, 7 and 9 weeks of treatment (d14, d28, d52 and d65), the animals were anesthetized by isoflurane inhalation without fasting. […] The TC, TG, LDL-C and HDL-C levels were determined. […]

With `CC(C)c1c(C(=O)Nc2ccccc2)c(-c2ccccc2)c(-c2ccc(F)cc2)n1CC[C@@H](O)C[C@@H](O)CC(=O)O` [atorvastatin calcium tablet, atorvastatin calcium] the “effect on reducing blood lipids (summary)” value was “no significant effect on reducing the blood lipids”.

— patent publication US11918620B2, “Traditional Chinese medicine composition, and preparation method therefor and application thereof” (Suzhou Regen-PharmaTech Co., Ltd., priority 2020, dated 2024)
